US8377651B2, “Method for detecting Escherichia coli” (Systagenix Wound Management (US), Inc., priority 2003, dated 2013)
Primed or numbered codes have the meaning given here. No end group written: not given here. *: point of attachment. Dabcyl″ = CN(C)c1ccc(/N=N/c2ccc(C(=O)*)cc2)cc1; EDANS = O=S(=O)(O)c1cccc2c(NCCN*)cccc12; Dabcyl′ = not defined here

Legend:
[1] = test system: E. coli cells; assay: Protease assay, labeled peptide substrate with bacterial culture (cells and media); assay type: cell-based, Escherichia coli; settings: for protease activity / cleavage of substrate (relative fluorescence): E. coli culture incl. cells and media, 20 mM tris pH 7.4, 150 mM NaCl, 37° C., ex 355 nm, em 485 nm, FIG. 1, 2
Experimental: (§1) The peptide substrates used here were labeled with the fluorescent probe edans (5((2-aminoethyl)amino)naphthalene-1-sulfonic acid) and the quencher dye molecule dabcyl ((4-(4-(dimethylamino)phenyl)azo)benzoic acid). The labeled peptides ecot1 (T1) and ecot2 (T2) sequences used are as follows:
(§2) The bacteria were grown in an incubator overnight at 37° C. in 5 mL BHT (Brain Heart Infusion) media. Each of the resulting cultures was split into two samples. One was used as a culture, and the other was spun down by centrifugation and the supernatant was collected. The assays were run in 20 mM tris buffer (pH 7.4) with 150 mM NaCl added. The reaction was carried out with 5 μL of culture or supernatant and 5 μL of peptide substrate (10 mg/mL in water) in 100 μL total volume at 37° C. The reaction was followed on a fluorimetric plate reader using an excitation wavelength of 355 nm and an emission wavelength of 485 nm.
(§3) The first set of experiments was performed by addition of the bacterial culture directly into the assay solution. The protease OmpT is a membrane bound protein and would not be expected to be found secreted into the media. The first assay to be run used the peptide ecot1(T1) as substrate.

[2] = test system: E. coli; assay: Protease assay in reaction buffer with 5% fetal bovine serum; assay type: cell-based, Escherichia coli; settings: buffer plus 5% fetal bovine serum; FIG. 3
Experimental: as §2
The 12 peptide substrate was further tested for cross reactivity with the types of conditions and molecules that may be present in a wound environment. A fluid that may be present in a wound, at least initially, is serum. In order to test for reactivity with serum the reaction buffer was modified to by addition 5% fetal bovine serum and the protease assay was repeated, using the 12 peptide substrate.

[3] = test system: secreted protease from E. coli; assay: Protease assay with bacterial culture supernatants; assay type: biochemical, Escherichia coli; settings: for protease activity with culture supernatant: E. coli culture supernatant
Experimental: as §2
(§4) To test whether the protease is membrane associated, as expected for E. coli OmpT, the protease assays were repeated with the supernatants obtained from each bacterial culture.

[4] = test system: E. coli cells; assay: Protease assay in simulated wound fluid buffer (5% bovine serum albumin); assay type: cell-based, Escherichia coli; settings: tris-buffered saline plus 5% (by weight) bovine serum albumin, FIG. 4
Experimental: as §2
The protease assay was also tested in a simulated wound fluid buffer. The buffer was tris-buffered saline, as described above, to which 5% (by weight) bovine serum albumin was added. The protease assay was repeated, again using the 12 peptide substrate.

[5] = test system: secreted protease from any of the other bacteria tested; assay: Protease assay with bacterial culture supernatants; assay type: biochemical
Experimental: as §2, §4

[6] = test system: Pseudomonas; assay: Protease assay, labeled peptide substrate with bacterial culture (cells and media); assay type: cell-based; settings: Pseudomonas culture incl. cells and media; 20 mM tris pH 7.4, 150 mM NaCl, 37° C.; FIG. 1
Experimental: as §1, §2, §3

[7] = test system: protease from Pseudomonas secreted into solution; assay: Protease assay with bacterial culture supernatants; assay type: biochemical
Experimental: as §2, §4

[8] = test system: E. coli; assay: Protease assay with modified (lysine-tagged) substrate and bacterial cultures; assay type: cell-based, Escherichia coli; settings: cultures of Pseudomonas, S. aureus, S. epidermidis, S. salivarius, S. pyogenes, Enterococcus, Serratia, 37° C., FIG. 5
Experimental: The protease assay, described herein for detection of E. colt was run with the modified version of T2, T3. Bacteria (Pseudomonas, E. coli, S. aureus, S. epidermidis, S. salivarius, S. pyogenes, Enterococcus, and Serratia) were grown in an incubator overnight at 37° C. in 5 mL BHI (Brain Heart Infusion) media. The assays were run in 20 mM tris buffer (pH 7.4) with 150 mM NaCl added. The reaction was carried out with 7 μL of culture including cells and media and […] (5 mg/mT, in water) in 100 μL total volume at 37° C. The reaction was followed on a fluorimetric plate reader using an excitation wavelength of 355 nm and an emission wavelength of 485 nm.

[9] = test system: E. coli cultures; assay: Biosensor: his-tagged peptide linked to nickel binding resin exposed to cultures; assay type: cell-based, Escherichia coli; settings: E. coli cultures versus BHI media without bacteria
Experimental: Metal chelate (affinity binding) interactions can provide a stronger bond to biological molecules. A his-tag built into the peptide substrate, for example T4 can be used to allow linkage to a nickel binding resin. The resin is incubated with a suitable culture, for example, E. coli for 30 minutes at 37° C. After centrifugation the buffer is removed and the pelleted resin is imaged. The fluorescence produced by the peptide is then detected.

Dabcyl - KVSRRRRRGGD - Edans [T2] was tested, and the “protease activity / cleavage of substrate (relative fluorescence)” value [1] was “reacted with this substrate”, the “selectivity of substrate among the bacteria tested” value ([1]; cultures of various bacteria incl. cells and media, FIG. 2) was “efficient and selective for E. coli” and the “detection of E. coli in presence of serum (cleavage, relative fluorescence)” value [2] was “detection of the presence of E. coli in the E. coli sample occurred”. For the same substance, the “protease activity with culture supernatant” value [3] was “did not show any reactivity”, the “selectivity for membrane bound protease OmpT” value ([3]; conclusion from culture versus supernatant assays) was “selective for the E. coli outer membrane protease OmpT” and the “protease reactivity in simulated wound fluid” value [4] was “not affected by the simulated wound fluid buffer”. For the same substance, the “selectivity and speed as probe in simulated wound fluid” value ([4]; various bacteria) was “rapid and selective probe for the detection of E. coli cells” and the “reactivity with secreted protease, culture supernatants” value [5] was “did not show any reactivity”.
For “Edans - DSRPVRRRRRPRVSK - Dabcyl (Edans-DSRPVRRRRRPRVSK-{Dabcyl′}) [T1]”, the “protease activity / cleavage of substrate (relative fluorescence)” value [1] was “protease activity was observed”, the “protease activity with culture supernatant” value [3] was “not present in the supernatant” and the “protease activity / cleavage of substrate (relative fluorescence)” value [6] was “protease activity was observed”. For the same substance, the “protease activity with culture supernatant” value [7] was “still present”.
For “KKAS(E-edans)VSRRRRRGG(K-dabcyl) (chain 1 KKASE(EDANS); chain 2 VSRRRRRGGK(Dabcyl″); not fully specified; printed as KKAS(E-edans)VSRRRRRGG(K-dabcyl)) [T3]”, the “specificity of assay among bacteria (cleavage, relative fluorescence over time)” value [8] was “specific for E. coli”.
With CHHHAS(E-edans)VSRRRRRGG(K-dabcyl) [T4] the “detection of E. coli by resin-bound peptide fluorescence” value [9] was “E. coli was detected”.
